US10383329B2, “Preservatives” (Eden Research PLC, priority 2012, dated 2019)

Experiment: Citral solution / stable suspension limit
Format: physicochemical
Source text: The choice of terpene may vary and mixtures of terpenes in an appropriate amount may be used. Thus, in one embodiment the terpene component includes one or more terpenes which contain oxygen. Citral, for example citral 95, is an oxygenated C10H16 terpene, C10H16O CAS No. 5392-40-5 (3,7-dimethyl-2,6-octadien-1-al). A stable suspension of citral can be formed up to about 2500 ppm. Citral can be made into a solution at up to about 500 ppm. A stable suspension of hollow glucan particles incorporating citral of 25 ppt citral can be made.

## CC(C)=CCCC(C)=CC=O [Citral, 3,7-dimethyl-2,6-octadien-1-al]
solution
  Concentration up to which citral can be made into a solution: up to 500 ppm
Stable suspension
  Concentration up to which a stable suspension of citral can be formed: up to 2500 ppm
